ChEMBL document CHEMBL1201862, “PubChem BioAssay data set” (2004)
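Exposure lasted 48 hours, with cells grown in 96-well plates and compounds tested at five concentrations. GI50 is the concentration that inhibits growth by half.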 Active and inactive are the calls of the source. Rule as the data show it: active = GI50 up to about 1.1 µM and inactive = higher.

Key:
Assay in all cases: NCI anticancer screen, dose series, 48 h
SN12C = test system: SN12C
OVCAR-4 = test system: OVCAR-4
NCI-H522 = test system: NCI-H522
DLD-1 = test system: DLD-1
UACC-257 = test system: UACC-257
SK-OV-3 = test system: SK-OV-3
SNB-19 = test system: SNB-19
TK-10 = test system: TK-10
DMS-273 = test system: DMS-273
CCRF-CEM = test system: CCRF-CEM
M14 = test system: M14
UACC-62 = test system: UACC-62
SNB-75 = test system: SNB-75
SW-620 = test system: SW-620
SK-MEL-28 = test system: SK-MEL-28
SF-268 = test system: SF-268
HOP-18 = test system: HOP-18
A498 = test system: A498
COLO 205 = test system: COLO 205
HCT-15 = test system: HCT-15
IGROV-1 = test system: IGROV-1
A549 = test system: A549
XF498 = test system: XF498
NCI-H460 = test system: NCI-H460
HT-29 = test system: HT-29
M19-MEL = test system: M19-MEL
U-251 = test system: U-251
KM-20L2 = test system: KM-20L2
LOX IMVI = test system: LOX IMVI
EKVX = test system: EKVX
SF-295 = test system: SF-295
NCI-H23 = test system: NCI-H23
HL-60 = test system: HL-60
LXFL 529 = test system: LXFL 529
CAKI-1 = test system: CAKI-1
RXF 631 = test system: RXF 631
SF-539 = test system: SF-539
NCI-H226 = test system: NCI-H226
RPMI-8226 = test system: RPMI-8226
Malme-3M = test system: Malme-3M
KM12 = test system: KM12
SK-MEL-5 = test system: SK-MEL-5
786-0 = test system: 786-0
HOP-92 = test system: HOP-92
K562 = test system: K562
HCT-116 = test system: HCT-116
RXF 393 = test system: RXF 393
OVCAR-8 = test system: OVCAR-8
DMS-114 = test system: DMS-114
HOP-62 = test system: HOP-62
MOLT-4 = test system: MOLT-4
UO-31 = test system: UO-31
ACHN = test system: ACHN
SK-MEL-2 = test system: SK-MEL-2
OVCAR-3 = test system: OVCAR-3
OVCAR-5 = test system: OVCAR-5
HCC 2998 = test system: HCC 2998
SR = test system: SR

O=C1c2ccccc2C(=O)N1CCCOCc1cnc(O)nc1O
GI50 (SN12C): > 100 µM (inactive)
GI50 (OVCAR-4): > 100 µM (inactive)
GI50 (NCI-H522): > 100 µM (inactive)
GI50 (DLD-1): > 100 µM (inactive)
GI50 (UACC-257): > 100 µM (inactive)
GI50 (SK-OV-3): > 100 µM (inactive)
GI50 (SNB-19): > 100 µM (inactive)
GI50 (TK-10): > 100 µM (inactive)
GI50 (DMS-273): > 100 µM (inactive)
GI50 (CCRF-CEM): > 100 µM (inactive)
GI50 (M14): > 100 µM (inactive)
GI50 (UACC-62): > 100 µM (inactive)
GI50 (SNB-75): > 100 µM (inactive)
GI50 (SW-620): > 100 µM (inactive)
GI50 (SK-MEL-28): > 100 µM (inactive)
GI50 (SF-268): > 100 µM (inactive)
GI50 (HOP-18): > 100 µM (inactive)
GI50 (A498): > 100 µM (inactive)
GI50 (COLO 205): > 100 µM (inactive)
GI50 (HCT-15): > 100 µM
GI50 (IGROV-1): > 100 µM (inactive)
GI50 (A549): > 100 µM (inactive)
GI50 (XF498): > 100 µM (inactive)
GI50 (NCI-H460): > 100 µM (inactive)
GI50 (HT-29): > 100 µM (inactive)
GI50 (M19-MEL): > 100 µM (inactive)
GI50 (U-251): > 100 µM (inactive)
GI50 (KM-20L2): > 100 µM (inactive)
GI50 (LOX IMVI): > 100 µM (inactive)
GI50 (EKVX): > 100 µM (inactive)
GI50 (SF-295): > 100 µM (inactive)
GI50 (NCI-H23): > 100 µM (inactive)
GI50 (HL-60): > 100 µM (inactive)
GI50 (LXFL 529): > 100 µM (inactive)
GI50 (CAKI-1): > 100 µM (inactive)
GI50 (RXF 631): > 100 µM (inactive)
GI50 (SF-539): > 100 µM (inactive)
GI50 (NCI-H226): > 100 µM (inactive)
GI50 (RPMI-8226): > 100 µM (inactive)
GI50 (Malme-3M): > 100 µM (inactive)
GI50 (KM12): > 100 µM (inactive)
GI50 (SK-MEL-5): > 100 µM (inactive)
GI50 (786-0): > 100 µM (inactive)
GI50 (HOP-92): > 100 µM (inactive)
GI50 (K562): > 100 µM (inactive)
GI50 (HCT-116): > 100 µM (inactive)
GI50 (RXF 393): > 100 µM (inactive)
GI50 (OVCAR-8): > 100 µM (inactive)
GI50 (DMS-114): > 100 µM (inactive)
GI50 (HOP-62): > 100 µM (inactive)
GI50 (MOLT-4): > 100 µM (inactive)
GI50 (UO-31): > 100 µM (inactive)
GI50 (ACHN): > 100 µM (inactive)
GI50 (SK-MEL-2): > 100 µM (inactive)
GI50 (OVCAR-3): > 100 µM (inactive)
GI50 (OVCAR-5): > 100 µM (inactive)

CN(C)CCN1N=Nc2cccc3cccc1c23
GI50 (SN12C): > 55.5 µM (inactive)
GI50 (OVCAR-4): 72.9 µM (inactive)
GI50 (NCI-H522): 54.2 µM (inactive)
GI50 (DLD-1): > 80.7 µM (inactive)
GI50 (UACC-257): > 100 µM (inactive)
GI50 (SK-OV-3): > 100 µM (inactive)
GI50 (SNB-19): > 100 µM (inactive)
GI50 (TK-10): > 100 µM (inactive)
GI50 (DMS-273): 24.5 µM (inactive)
GI50 (CCRF-CEM): > 47 µM (inactive)
GI50 (HCC 2998): > 100 µM (inactive)
GI50 (M14): > 100 µM (inactive)
GI50 (UACC-62): > 100 µM (inactive)
GI50 (SNB-75): > 100 µM (inactive)
GI50 (SW-620): 25.1 µM (inactive)
GI50 (SK-MEL-28): > 100 µM (inactive)
GI50 (SF-268): > 100 µM (inactive)
GI50 (HOP-18): > 100 µM (inactive)
GI50 (A498): > 91.8 µM (inactive)
GI50 (COLO 205): 68.4 µM (inactive)
GI50 (HCT-15): > 61.9 µM
GI50 (IGROV-1): > 100 µM (inactive)
GI50 (A549): > 100 µM (inactive)
GI50 (XF498): > 89.5 µM (inactive)
GI50 (NCI-H460): 37.5 µM (inactive)
GI50 (HT-29): 45.6 µM (inactive)
GI50 (U-251): > 100 µM (inactive)
GI50 (KM-20L2): > 61.4 µM (inactive)
GI50 (LOX IMVI): 83.8 µM (inactive)
GI50 (EKVX): > 100 µM (inactive)
GI50 (SF-295): > 100 µM (inactive)
GI50 (NCI-H23): > 100 µM (inactive)
GI50 (HL-60): > 46.8 µM (inactive)
GI50 (LXFL 529): > 87.3 µM (inactive)
GI50 (CAKI-1): 69.7 µM (inactive)
GI50 (RXF 631): > 100 µM (inactive)
GI50 (SF-539): > 100 µM (inactive)
GI50 (NCI-H226): > 100 µM (inactive)
GI50 (RPMI-8226): > 43.9 µM (inactive)
GI50 (Malme-3M): > 78.3 µM (inactive)
GI50 (KM12): > 100 µM (inactive)
GI50 (SK-MEL-5): > 88.7 µM (inactive)
GI50 (786-0): > 100 µM (inactive)
GI50 (SR): 15.7 µM (inactive)
GI50 (HOP-92): > 100 µM (inactive)
GI50 (K562): > 65.2 µM (inactive)
GI50 (HCT-116): 57.1 µM (inactive)
GI50 (OVCAR-8): 97.9 µM (inactive)
GI50 (DMS-114): > 74.8 µM (inactive)
GI50 (HOP-62): > 100 µM (inactive)
GI50 (MOLT-4): 35.2 µM (inactive)
GI50 (UO-31): > 100 µM (inactive)
GI50 (ACHN): 61.1 µM (inactive)
GI50 (SK-MEL-2): > 100 µM (inactive)
GI50 (OVCAR-3): > 100 µM (inactive)
GI50 (OVCAR-5): > 100 µM (inactive)
